The compounds below were run on HSV-1 (assay: HSV-1 infection of Vero 76 cells, viral DNA hybridization capture assay). Conditions: Human alphaherpesvirus 1; HSV-1 (MOI=0.001) in Vero 76 cells, 40–48 hours incubation, HSV DNA hybridization with chemiluminescence detection.
Format: cell-based
Method: Vero 76 cells were maintained in MEM with Earle's salts, L-glutamine, 8% FBS (Hyclone, A-1111-L) and 100 units/mL Penicillin-100 μg/mL Streptomycin. For assay conditions, FBS was reduced to 2%. Cells are seeded into 96-well tissue culture plates at a density of 5×10^4 cells/well after being incubated for 45 min at 37° C. in the presence of HSV-1 or HSV-2 (MOI=0.001). Test compounds are added to the wells and the plates are incubated at 37° C. for 40–48 hours. Cell lysates are prepared as follows: media was removed and replaced with 150 μL/well 0.2 N NaOH with 1% Igepal CA 630 or NP-40. Plates were incubated up to 14 days at room temperature in a humidified chamber to prevent evaporation.
For the detection probe, a gel-purified, digoxigenin-labeled, […] PCR fragment of the HSV UL-15 sequence was utilized. PCR conditions included 0.5 μM primers, 180 μM dTTP, 20 μM dUTP-digoxigenin (Boehringer Mannheim 1558706), 200 μM each of dATP, dCTP, and dGTP, 1×PCR Buffer II (Perkin Elmer), 2.5 mM, MgCl2, 0.025 units/μL of AmpliTaq Gold polyerase (Perkin Elmer), and 5 ng a gel-purified HSV DNA per 100 μL Extension conditions were 10 min at 95° C., followed by 30 cycles of 95° C. for 1 min, 55° C. for 30 sec, and 72° C. for 2 min. The amplification was completed with a 10-min incubation at 72° C. Primers were selected to amplify a 728 bp probe spanning a section of the HSV1 UL15 open reading frame (nucleotides 249–977). Single-stranded transcripts were purified with Promega M13 Wizard kits. The final product was mixed 1:1 with a mixture of 6 M GuSCN, 100 mM EDTA and 200 μg/mL herring sperm DNA and stored at 4° C.
The capture DNA plasmid (HSV UL13 region in pUC) was linearized by cutting with Xba I, denatured for 15 min at 95° C. and diluted immediately into Reacti-Bind DNA Coating Solution (Pierce, 17250, diluted 1:1 with TE buffer, pH 8) at 1 ng/μL 75 μl/well were added to Corning (#3922 or 9690) white 96-well plates and incubated at room temperature for at least 4 hrs before washing twice with 300 μL/well 0.2×SSC/0.05% Tween-20 (SSC/T buffer). The plates were then incubated overnight at room temperature with 150 μL/well 0.2 N NaOH, 1% IGEPAL and 10 μg/mL herring sperm DNA.
Twenty-seven (27) μL of cell lysate was combined with 45 μL of hydridization solution (final concentration: 3M GuSCN, 50 mM EDTA, 100 μg/ml salmon sperm DNA, 5× Denhardt's solution, 0.25× APE, and 5 ng of the digoxigenin-labeled detection probe). APE is 1.5 M NH4-acetate, 0.15 M NH4H2phosphate, and 5 mM EDTA adjusted to pH 6.0. Mineral oil (50 μL) was added to prevent evaporation. The hybridization plates were incubated at 95° C. for 10 minutes to denature the DNA, then incubated at 42° C. overnight. The wells were washed 6× with 300 μL/well SSC/T buffer then incubated with 75 μL/well anti-digoxigenin-HRP-conjugated antibody (Boehringer Mannheim 1207733, 1:5000 in TE) for 30 min at room temperature. The wells were washed 6× with 300 μL/well with PBS/0.05% Tween-20 before 75 μL/well SuperSignal LBA substrate (Pierce) was added. The plates were incubated at room temperature for 30 minutes and chemiluminescence was measured in a Wallac Vietor reader.
The following results were obtained for HSV-1.

| Structure (SMILES) | IC50 [µM] |
| --- | --- |
| Fc1ccc(-c2nn3c(NC4CCCC4)nccc3c2-c2ccnc(NC3CCCC3)n2)cc1 [Example 1, N-Cyclopentyl-3-[2-(cyclopentylamino)pyrimidin-4-yl]-2-(4-fluorophenyl)pyrazolo[1,5-c]pyrimidin-7-amine] | 0.72 |
| CSc1nc(NC2CCCC2)n2nc(-c3ccccc3)c(-c3ccnc(F)c3)c2n1 [Example 9, N-Cyclopentyl-8-(2-fluoro-4-pyridinyl)-2-(methylsulfanyl)-7-phenylpyrazolo[1,5-a][1,3,5]triazin-4-amine] | 7.1 |
| c1ccc(-c2nn3c(NC4CCCC4)nc(NC4CCCC4)nc3c2-c2ccnc(NC3CCCC3)c2)cc1 [Example 10, N^2,N^4-Dicyclopentyl-8-[2-(cyclopentylamino)-4-pyridinyl]-7-phenylpyrazolo[1,5-a][1,3,5]triazine-2,4-diamine] | 0.12 |
| c1ccc(-c2nn3c(NC4CCCC4)ncnc3c2-c2ccnc(NC3CCCC3)n2)cc1 [Example 11, N-Cyclopentyl-8-[2-(cyclopentylamino)-4-pyrimidinyl]-7-phenylpyrazolo[1,5-a][1,3,5]triazin-4-amine] | 6.4 |
| Fc1ccc(-c2nn3c(NC4CCCC4)nccc3c2-c2ccnc(Nc3ccccc3)n2)cc1 [Example 13, 3-(2-Anilinopyrimidin-4-yl)-N-cyclopentyl-2-(4-fluorophenyl)pyrazolo-[1,5-c]pyrimidin-7-amine] | 1.5 |
| Fc1ccc(-c2nn3c(NC4CCCC4)nccc3c2-c2ccnc(Nc3nc4ccccc4s3)n2)cc1 [Example 14, 3-[2-(1,3-Benzothiazol-2-ylamino)pyrimidin-4-yl]-N-cyclopentyl-2-(4-fluorophenyl)pyrazolo[1,5-c]pyrimidin-7-amine] | > 40 |
| Cc1csc(Nc2nccc(-c3c(-c4ccc(F)cc4)nn4c(NC5CCCC5)nccc34)n2)n1 [Example 15, N-Cyclopentyl-2-(4-fluorophenyl)-3-{2-[(4-methyl-1,3-thiazol-2-yl)amino]pyrimidin-4-yl}pyrazolo[1,5-c]pyrimidin-7-amine] | > 40 |
| Fc1ccc(-c2nn3c(NC4CCCC4)nccc3c2-c2ccnc(Nc3nc4ccccc4[nH]3)n2)cc1 [Example 16, 3-[2-(1H-Benzimidazol-2-ylamino)pyrimidin-4-yl]-N-cyclopentyl-2-(4-fluorophenyl)pyrazolo[1,5-c]pyrimidin-7-amine] | > 40 |
| Fc1ccc(CNc2nccc(-c3c(-c4ccc(F)cc4)nn4c(NC5CCCC5)nccc34)n2)cc1 [Example 17, N-Cyclopentyl-3-{2-[(4-fluorobenzyl)amino]pyrimidin-4-yl}-2-(4-fluorophenyl)pyrazolo[1,5-c]pyrimidin-7-amine] | 2 |
| Fc1ccc(-c2nn3c(NC4CCCC4)nccc3c2-c2ccnc(NCCc3ccccc3)n2)cc1 [Example 18, N-Cyclopentyl-2-(4-fluorophenyl)-3-{2-[(2-phenylethyl)amino]pyrimidin-4yl}pyrazolo[1,5-c]pyrimidin-7-amine] | 3.5 |
| CC(C)(C)Nc1nccc(-c2c(-c3ccc(F)cc3)nn3c(NC4CCCC4)nccc23)n1 [Example 19, 3-[2-(tert-Butylamino)pyrimidin-4-yl]-N-cyclopentyl-2-(4-fluorophenyl)pyrazolo[1,5-c]pyrimidin-7-amine] | 3 |
| COc1ccc(-c2nn3c(NC4CCCC4)nccc3c2-c2ccnc(NC3CCCC3)n2)cc1 [Example 21, N-Cyclopentyl-3-[2-(cyclopentylamino)pyrimidin-4-yl]-2-(4-methoxyphenyl)pyrazolo[1,5-c]pyrimidin-7-amine] | 0.4 |
| Oc1ccc(-c2nn3c(NC4CCCC4)nccc3c2-c2ccnc(NC3CCCC3)n2)cc1 [Example 22, 4-{7-(Cyclopentylamino)-3-[2-(cyclopentylamino)pyrimidin-4-yl]pyrazolo[1,5-c]pyrimidin-2-yl}phenol] | 4 |
| c1cc(-c2c(-c3ccc(OCC4CC4)cc3)nn3c(NC4CCCC4)nccc23)nc(NC2CCCC2)n1 [Example 23, N-Cyclopentyl-3-[2-(cyclopentylamino)pyrimidin-4-yl]-2-[4-(cyclopropylmethoxy)phenyl]pyrazolo[1,5-c]pyrimidin-7-amine] | 0.5 |
| CCCCOc1ccc(-c2nn3c(NC4CCCC4)nccc3c2-c2ccnc(NC3CCCC3)n2)cc1 [Example 25, 2-(4-Butoxyphenyl)-N-cyclopentyl-3-[2-(cyclopentylamino)pyrimidin-4-yl]pyrazolo[1,5-c]pyrimidin-7-amine] | 0.6 |
| CC(C)COc1ccc(-c2nn3c(NC4CCCC4)nccc3c2-c2ccnc(NC3CCCC3)n2)cc1 [Example 26, N-Cyclopentyl-3-[2-(cyclopentylamino)pyrimidin-4-yl]-2-(4-isobutoxyphenyl)pyrazolo[1,5-c]pyrimidin-7-amine] | 0.5 |

The remaining lines, values ahead:

| IC50 [µM] | Structure (SMILES) |
| --- | --- |
| 5.5 | Fc1ccc(-c2nn3c(NC4CCCC4)nccc3c2-c2ccnc(NC3CC3)n2)cc1 [Example 2, N-Cyclopentyl-3-[2-(cyclopropylamino)pyrimidin-4yl]-2-(4-fluorophenyl)pyrazolo[1,5-c]pyrimidin-7-amine] |
| 3.9 | Clc1cccc(-c2nn3cnccc3c2-c2ccnc(NC3CCCC3)n2)c1 [Example 3, 4-[2-(3-Chlorophenyl)pyrazolo[1,5-c]pyrimidin-3-yl]-N-cyclopentylpyrimidin-2-amine] |
| 11.3 | CSc1nccc2c(-c3ccnc(NC4CCCC4)n3)c(-c3cccc(Cl)c3)nn12 [Example 4, 4-[2-(3-Chlorophenyl)-7-(methylthio)pyrazolo[1,5-c]pyrimidin-3-yl]-N-cyclopentylpyrimidin-2-amine] |
| 0.46 | Clc1cccc(-c2nn3c(NC4CCCC4)nccc3c2-c2ccnc(NC3CCCC3)n2)c1 [Example 5, 2-(3-Chlorophenyl)-N-cyclopentyl-3-[2-(cyclopentylamino)-4-pyrimidinyl]pyrazolo[1,5-c]pyrimidin-7-amine] |
| 0.2 | Clc1cccc(-c2nn3c(N4CCOCC4)nccc3c2-c2ccnc(NC3CCCC3)n2)c1 [Example 6, 4-[2-(3-Chlorophenyl)-7-(4-morpholinyl)pyrazolo[1,5-c]pyrimidin-3-yl]-N-cyclopentyl-2-pyrimidinamine] |
| 0.3 | COCCNc1nccc2c(-c3ccnc(NC4CCCC4)n3)c(-c3cccc(Cl)c3)nn12 [Example 7, 2-(3-Chlorophenyl)-3-[2-(cyclopentylamino)-4-pyrimidinyl]-N-(2-methoxyethyl)pyrazolo[1,5-c]pyrimidin-7-amine] |
| 2.5 | Oc1nccc2c(-c3ccnc(NC4CCCC4)n3)c(-c3cccc(Cl)c3)nn12 [Example 8, 2-(3-Chlorophenyl)-3-[2-(cyclopentylamino)-4-pyrimidinyl]pyrazolo[1,5-c]pyrimidin-7-ol] |
| 1 | CCCCNc1nccc(-c2c(-c3ccc(F)cc3)nn3c(NC4CCCC4)nccc23)n1 [Example 12, 3-[2-(Butylamino)pyrimidin-4-yl]-N-cyclopentyl-2-(4-fluorophenyl)pyrazolo[1,5-c]pyrimidin-7-amine] |
| > 40 | CSc1nccc2c(-c3ccnc(NC4CCCC4)n3)c(-c3ccc(F)cc3)nn12 [Example 20, N-Cyclopentyl-4-[2-(4-fluorophenyl)-7-(methylsulfanyl)pyrazolo[1,5-c]pyrimidin-3-yl]pyrimidin-2-amine] |
| 1 | COc1ccc(-c2nn3c(NC4CC4)nccc3c2-c2ccnc(NC3CCCC3)n2)cc1 [Example 24, 3-[2-(Cyclopentylamino)pyrimidin-4-yl]-N-cyclopropyl-2-(4-methoxyphenyl)pyrazolo[1,5-c]pyrimidin-7-amine] |
| 1 | COCCOc1ccc(-c2nn3c(NC4CCCC4)nccc3c2-c2ccnc(NC3CCCC3)n2)cc1 [Example 27, N-Cyclopentyl-3-[2-(cyclopentylamino)pyrimidin-4-yl]-2-[4-(2-methoxyethoxy)phenyl]pyrazolo[1,5-c]pyrimidin-7-amine] |

Source: patent publication US7247626B2, “Pyrazolopyrimidine derivatives and pharmaceutical compositions containing them” (SmithKline Beecham Corporation, priority 2002, dated 2007)
